Legend:
[1] = target: CDK1/Cyclin B1 (Homo sapiens, UniProt P06493); assay: CDK1/Cyclin B1 Biochemical Assay (TR-FRET), 0.015 mM ATP; conditions: 0.15 μM Rb (Ser780)-biotin substrate, pH7.0, 60 min preincubation, 120 min reaction, room temperature
Outline: (§1)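 Inhibitor concentrations up to 10 μM were preincubated with each cyclin–kinase complex for 60 minutes before ATP and biotinylated Rb (Ser780) substrate (0.15 μM) were added. After 120 minutes at room temperature, phosphorylation was quantified by HTRF and IC50 values were fitted with a four-parameter logistic equation.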

[2] = target: CDK2/Cyclin E1 (Homo sapiens, UniProt P24941); assay: CDK2/Cyclin E1 Biochemical Assay (TR-FRET), 0.060 mM ATP; conditions: 0.15 μM Rb (Ser780)-biotin substrate, pH7.0, 60 min preincubation, 120 min reaction, room temperature
Outline: as §1

CDK1/Cyclin B1, sequence (P06493 whole entry): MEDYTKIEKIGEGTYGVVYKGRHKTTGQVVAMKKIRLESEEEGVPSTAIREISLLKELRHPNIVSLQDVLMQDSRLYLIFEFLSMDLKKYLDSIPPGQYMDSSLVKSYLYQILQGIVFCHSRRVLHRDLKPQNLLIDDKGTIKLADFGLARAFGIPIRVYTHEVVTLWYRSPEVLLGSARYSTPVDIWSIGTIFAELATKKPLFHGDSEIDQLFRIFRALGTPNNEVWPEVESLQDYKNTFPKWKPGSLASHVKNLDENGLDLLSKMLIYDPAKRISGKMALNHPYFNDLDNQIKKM
CDK1/Cyclin B1, sequence (P14635 whole entry partner): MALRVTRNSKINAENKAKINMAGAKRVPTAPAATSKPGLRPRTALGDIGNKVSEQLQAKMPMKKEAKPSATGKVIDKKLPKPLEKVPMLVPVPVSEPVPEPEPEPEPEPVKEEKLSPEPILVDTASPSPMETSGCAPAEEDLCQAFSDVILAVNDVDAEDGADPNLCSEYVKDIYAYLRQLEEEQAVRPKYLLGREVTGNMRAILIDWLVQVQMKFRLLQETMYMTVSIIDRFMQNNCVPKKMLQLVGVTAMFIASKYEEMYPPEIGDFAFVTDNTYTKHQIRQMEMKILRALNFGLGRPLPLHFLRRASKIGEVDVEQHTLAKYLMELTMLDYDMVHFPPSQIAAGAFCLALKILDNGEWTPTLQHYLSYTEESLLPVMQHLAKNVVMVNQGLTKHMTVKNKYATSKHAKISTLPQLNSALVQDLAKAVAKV

| SMILES | IC50 [1] | IC50 [2] |
| --- | --- | --- |
| CC(C)NC(=O)O[C@H]1CC[C@@H](c2cc(Nc3cc4c(cc3F)S(=O)(=O)NC4)n[nH]2)C1 (single isomer, unassigned) [Example 12b, cis-3-(3-((6-fluoro-1,1-dioxido-2,3-dihydrobenzo[d]isothiazol-5-yl)amino)-1H-pyrazol-5-yl)cyclopentyl isopropylcarbamate] | 359 nM | 9.3 nM |
| CC(C)NC(=O)O[C@H]1CC[C@@H](c2cc(Nc3ccc4c(c3)NS(=O)(=O)N4)n[nH]2)C1 (relative stereo) [Example 320, cis-3-(3-((2,2-dioxido-1,3-dihydrobenzo[c][1,2,5]thiadiazol-5-yl)amino)-1H-pyrazol-5-yl)cyclopentyl isopropylcarbamate] | 1760 nM | 134 nM |
| CC1(NC(=O)O[C@H]2CC[C@@H](c3cc(Nc4ccc5c(c4F)CS(=O)(=O)N5)n[nH]3)C2)CCOC1 (relative stereo) [Example 375, cis-3-(3-((4-fluoro-2,2-dioxido-1,3-dihydrobenzo[c]isothiazol-5-yl)amino)-1H-pyrazol-5-yl)cyclopentyl(3-methyltetrahydrofuran-3-yl)carbamate] | 95 nM | 4.6 nM |
| CC1(NC(=O)O[C@H]2CC[C@@H](c3cc(Nc4ccc5c(c4F)CNS5(=O)=O)n[nH]3)C2)CC1 (single isomer, unassigned) [Example 140a, cis-3-(3-((4-fluoro-1,1-dioxido-2,3-dihydrobenzo[d]isothiazol-5-yl)amino)-1H-pyrazol-5-yl)cyclopentyl(1-methylcyclopropyl)carbamate] | 97 nM | 1.1 nM |
| C[C@H]1[C@H](O)CN1C(=O)O[C@H]1CC[C@@H](c2cc(Nc3ccc4c(c3)CS(=O)(=O)N4C)n[nH]2)C1 (relative stereo) [Example 354, cis-3-(3-((1-methyl-2,2-dioxido-1,3-dihydrobenzo[c]isothiazol-5-yl)amino)-1H-pyrazol-5-yl)cyclopentyl(2S,3R)-3-hydroxy-2-methylazetidine-1-carboxylate] | 85 nM | 11 nM |
| CCCNC(=O)O[C@H]1CC[C@@H](c2cc(Nc3ccc4c(c3)CCS(=O)(=O)N4)n[nH]2)C1 (relative stereo) [Example 247, cis-3-(3-((2,2-dioxido-3,4-dihydro-1H-benzo[c][1,2]thiazin-6-yl)amino)-1H-pyrazol-5-yl)cyclopentyl propylcarbamate] | 79 nM | 9.7 nM |
| COCC(C)(C)NC(=O)O[C@H]1CC[C@@H](c2cc(Nc3ccc4c(c3)CS(=O)(=O)N4)n[nH]2)C1 (relative stereo) [Example 370, cis-3-(3-((2,2-dioxido-1,3-dihydrobenzo[c]isothiazol-5-yl)amino)-1H-pyrazol-5-yl)cyclopentyl(1-methoxy-2-methylpropan-2-yl)carbamate] | 9.7 nM | 1.1 nM |
| CC(C)NC(=O)O[C@H]1CC[C@@H](c2cc(Nc3ccc4c(c3)CN(C)S4(=O)=O)n[nH]2)C1 (relative stereo) [Example 11, cis-3-(3-((2-methyl-1,1-dioxido-2,3-dihydrobenzo[d]isothiazol-5-yl)amino)-1H-pyrazol-5-yl)cyclopentyl isopropylcarbamate] | 140 nM | 4.1 nM |
| CC1NS(=O)(=O)c2ccc(Nc3cc([C@@H]4CC[C@H](OC(=O)NC5(C)CC5)C4)[nH]n3)cc21 (single isomer, unassigned) [Example 322b, cis-3-(3-((3-methyl-1,1-dioxido-2,3-dihydrobenzo[d]isothiazol-5-yl)amino)-1H-pyrazol-5-yl)cyclopentyl(1-methylcyclopropyl)carbamate] | 3.2 nM | 0.6 nM |
| COc1cc2c(cc1Nc1cc([C@@H]3CC[C@H](OC(=O)NC(C)C)C3)[nH]n1)CNS2(=O)=O (relative stereo) [Example 15, cis-3-(3-((6-methoxy-1,1-dioxido-2,3-dihydrobenzo[d]isothiazol-5-yl)amino)-1H-pyrazol-5-yl)cyclopentyl isopropylcarbamate] | 1070 nM | 23 nM |
| CC[C@H](C)NC(=O)O[C@H]1CC[C@@H](c2cc(Nc3cc4c(cc3F)NS(=O)(=O)C4)n[nH]2)C1 (relative stereo) [Example 294, cis-3-(3-((6-fluoro-2,2-dioxido-1,3-dihydrobenzo[c]isothiazol-5-yl)amino)-1H-pyrazol-5-yl)cyclopentyl((S)-sec-butyl)carbamate] | 359 nM | 15 nM |
| CC(C)NC(=O)O[C@H]1CC[C@@H](c2cc(Nc3ccc4c(c3)C(C)NS4(=O)=O)n[nH]2)C1 (single isomer, unassigned) [Example 321b, cis-3-(3-((3-methyl-1,1-dioxido-2,3-dihydrobenzo[d]isothiazol-5-yl)amino)-1H-pyrazol-5-yl)cyclopentyl isopropylcarbamate] | 15 nM | 0.6 nM |
| [2H]C([2H])([2H])N1Cc2cc(Nc3cc([C@@H]4CC[C@H](OC(=O)NC(C)C)C4)[nH]n3)c(F)cc2S1(=O)=O (relative stereo) [Example 46, cis-3-(3-((6-fluoro-2-(methyl-d3)-1,1-dioxido-2,3-dihydrobenzo[d]isothiazol-5-yl)amino)-1H-pyrazol-5-yl)cyclopentyl isopropylcarbamate] | 4420 nM | 230 nM |
| CC(C)NC(=O)O[C@H]1CC[C@@H](c2cc(Nc3cc4c(cc3Cl)S(=O)(=O)NC4)n[nH]2)C1 (relative stereo) [Example 27, cis-3-(3-((6-chloro-1,1-dioxido-2,3-dihydrobenzo[d]isothiazol-5-yl)amino)-1H-pyrazol-5-yl)cyclopentyl isopropylcarbamate] | 958 nM | 33 nM |
| CC[C@H](C)NC(=O)O[C@H]1CC[C@@H](c2cc(Nc3ccc4c(c3)NS(=O)(=O)C4)n[nH]2)C1 (relative stereo) [Example 306, cis-3-(3-((2,2-dioxido-1,3-dihydrobenzo[c]isothiazol-6-yl)amino)-1H-pyrazol-5-yl)cyclopentyl((S)-sec-butyl)carbamate] | 27 nM | 2.8 nM |
| CC(C)NC(=O)O[C@H]1CC[C@@H](c2cc(Nc3c(F)cc4c(c3F)CNS4(=O)=O)n[nH]2)C1 (relative stereo) [Example 30, cis-3-(3-((4,6-difluoro-1,1-dioxido-2,3-dihydrobenzo[d]isothiazol-5-yl)amino)-1H-pyrazol-5-yl)cyclopentyl isopropylcarbamate] | 544 nM | 7.2 nM |
| CC1(NC(=O)O[C@H]2CC[C@@H](c3cc(Nc4ccc5c(c4F)CS(=O)(=O)N5C4CC4)n[nH]3)C2)CC1 (relative stereo) [Example 277, cis-3-(3-((1-cyclopropyl-4-fluoro-2,2-dioxido-1,3-dihydrobenzo[c]isothiazol-5-yl)amino)-1H-pyrazol-5-yl)cyclopentyl(1-methylcyclopropyl)carbamate] | 36 nM | 1.7 nM |
| CC1(NC(=O)O[C@H]2CC[C@@H](c3cc(Nc4ccc5c(c4)NS(=O)(=O)C5)n[nH]3)C2)CC1 (relative stereo) [Example 307, cis-3-(3-((2,2-dioxido-1,3-dihydrobenzo[c]isothiazol-6-yl)amino)-1H-pyrazol-5-yl)cyclopentyl(1-methylcyclopropyl)carbamate] | 18 nM | 2.5 nM |

Reference: patent US20260297080A1, “BICYCLIC COMPOUNDS AS CDK INHIBITORS” (BeOne Medicines I GmbH, priority 2022, published 2026)
